Test results published in US9696323B2, “Biomarkers for chagas disease related cardiomyopathy” (THE BOARD OF REGENTS OF THE UNIVERSITY OF TEXAS SYSTEM, priority 2013, dated 2017).

System: T. cruzi
Experiment: 2D-GE plasma proteome profile (differential protein expression) of T. cruzi-infected rats treated with PBN and/or BZ
Type: in vivo, rat
Details: plasma
Excerpt: Certain embodiments include biomarkers identified in a previous study. Parasite persistence and oxidative damage in the heart are known to be of pathological significance during Chagas disease (Zacks et al., (2005) An Acad Bras Cienc, 77, 695-715; Gupta et al., (2009) Interdiscip Perspect Infect Dis, 2009, 190354). […] In the previous study the inventors identified 92 proteins that were differentially expressed or oxidized in chagasic plasma. Functional analysis allocated a majority of these proteins to inflammation/immunity and lipid metabolism categories, and to molecular pathways associated with cardiovascular dysfunction, e.g., myocardial infarction, hypertrophy, and fibrosis, and pulmonary embolism and hypertension. Some proteins in chagasic rats treated with PBN and/or BZ were allocated to curative pathways (immune regulation and cardiac remodeling). The 2D-GE results were validated by Western blotting. […] Increased plasma levels of GSN, MYL2, and VIM were directly correlated with the severity of cardiac disease in human chagasic patients. […] These findings have utility in diagnosing disease severity and designing suitable therapy for management of human chagasic patients.
Ingenuity Pathway Analysis (IPA) is a highly curated and comprehensive software used for the integration of proteins into networks and pathways with biological meaning (Thomas and Bonchev, (2010). Hum Genomics, 4, 353-360). Network analysis of the plasma proteome profile of chagasic rats identified four major sub-networks linked to host response to T. cruzi infection and disease development (Table V). The maximal numbers of the differentially expressed plasma proteins (19 proteins) in chagasic rats were associated with antigen presentation and inflammatory response category (Table V) and indicators of persistent inflammation, known to be of pathological significance in Chagas disease (Dhiman et al., (2009) Clinical and Vaccine Immunology, 16, 660-666; Tanowitz et al., (2009) Prog Cardiovasc Dis, 51, 524-539; Junqueira et al., (2010) Expert Rev Mol Med, 12, e29). Following functional analysis of the inflammation-associated proteins, 12 proteins (APOA1, APOE, C3, CFB, CFH, FGB, GSN, KRT10, PLG, SCG2, SERPINA1, and SERPINC1) were identified as being involved in immune cell trafficking and cell movement of leukocytes, granulocytes, phagocytes, neutrophils, and dendritic and antigen presenting cells. Some of the differentially expressed proteins in inflammation category were associated with activation (APOE, C3, CFH, GC and PLG), chemotaxis (C3, SCG2, SERPINA1, SERPINC1), and infiltration of leukocytes (APOA1, APOE, C3, PLG, KRT10) and neutrophils (C3, CFB, CFH, PLG). Up regulation of APOE, APOA1, APOH, GC and PLG in chagasic plasma was indicative of activation, binding and accumulation of macrophages in the disease state. Of the 19 differentially expressed inflammation-associated proteins, 11 proteins (APOE, C3, CFB, CFH, GSN, KRT10, SCG2, SERPINA1, SERPINC1, GC, and PLG) were carbonylated in chagasic plasma. […] Other proteins (APOE, C3, KRT3, and SCG2) were exposed to oxidation due to T. cruzi-induced, acute oxidative stress, but were normalized in expression and oxidation during the chronic phase.
Seventeen of the differentially expressed proteins in chagasic plasma, i.e., AFM, C4BPA, CACNA1D, DLGAP2, GC, KNG1, MUG1, MYLPF, MY05A, MY05B, PRPH, PZP, RAI14, and SCG2, were allotted to the lipid metabolism/molecular transport/small molecule biochemistry category (Table V) and functionally linked by IPA network analysis to lipid, fatty acid, and carbohydrate metabolism. A majority of the proteins in this category, i.e., ALB, APOA1, APOA4, APOE, APOH, C3, GC, GNAQ, MY05A, PLG, SCD2, SERPINA1, SERPINC1 and VIM, were linked to the synthesis, metabolism, transport, and modification of lipids and fatty acids, and to uptake and release or efflux of lipids, eicosanoids, and cholesterol. […]

[1] = RCP/RCB/RCPB groups (chronic infection)

CC(C)(C)/[N+]([O-])=C/c1ccccc1 [PBN]
Spot# 979 Average Normalized Density × 100,000 (RAP group (acute infection)): 59.46 | Spot# 992 Average Normalized Density × 100,000 (RAP group (acute infection)): 34.51 | Spot# 12, 180 Average Normalized Density × 100,000 [1]: 7.22 | Spot# 34 Average Normalized Density × 100,000 [1]: 0.45 | Spot# 37, 593 Average Normalized Density × 100,000 [1]: 6.48 | Spot# 49, 673 Average Normalized Density × 100,000 [1]: 13.39 | Spot# 52, 54, 302 Average Normalized Density × 100,000 [1]: 14.45 | Spot# 53, 225 Average Normalized Density × 100,000 [1]: 15.12 | Spot# 72 Average Normalized Density × 100,000 [1]: 16.43 | Spot# 73, 705, 787 Average Normalized Density × 100,000 [1]: 38.67 | Spot# 77 Average Normalized Density × 100,000 [1]: 8.675 | Spot# 88 Average Normalized Density × 100,000 [1]: 40.49 | Spot# 94 Average Normalized Density × 100,000 [1]: 2.55 | Spot# 115, 123 Average Normalized Density × 100,000 [1]: 10.96 | Spot# 149 Average Normalized Density × 100,000 [1]: 4.39 | Spot# 153 Average Normalized Density × 100,000 [1]: 10.34 | Spot# 177 Average Normalized Density × 100,000 [1]: 1.60 | Spot# 181 Average Normalized Density × 100,000 [1]: 1.90 | Spot# 184, 257, 328 Average Normalized Density × 100,000 [1]: 5.85 | Spot# 207, 555 Average Normalized Density × 100,000 [1]: 9.12 | Spot# 215 Average Normalized Density × 100,000 [1]: 1.97 | Spot# 266 Average Normalized Density × 100,000 [1]: 0.54 | Spot# 299 Average Normalized Density × 100,000 [1]: 1.17 | Spot# 315 Average Normalized Density × 100,000 [1]: 8.23 | Spot# 334 Average Normalized Density × 100,000 [1]: 0.71 | Spot# 341 Average Normalized Density × 100,000 [1]: 1.10 | Spot# 355, 359 Average Normalized Density × 100,000 [1]: 2.20 | Spot# 382, 385, 378, 572, 578, 595 Average Normalized Density × 100,000 [1]: 3.29 | Spot# 389 Average Normalized Density × 100,000 [1]: 4.32 | Spot# 430 Average Normalized Density × 100,000 [1]: 8.21 | Spot# 434, 678 Average Normalized Density × 100,000 [1]: 24.63 | Spot# 439 Average Normalized Density × 100,000 [1]: 14.99 | Spot# 452 Average Normalized Density × 100,000 [1]: 10.01 | Spot# 464 Average Normalized Density × 100,000 [1]: 6.65 | Spot# 479 Average Normalized Density × 100,000 [1]: 32.56 | Spot# 493 Average Normalized Density × 100,000 [1]: 13.46 | Spot# 515 Average Normalized Density × 100,000 [1]: 7.78 | Spot# 524 Average Normalized Density × 100,000 [1]: 21.96 | Spot# 551, 587, 908 Average Normalized Density × 100,000 [1]: 54.1 | Spot# 559 Average Normalized Density × 100,000 [1]: 27.58 | Spot# 571 Average Normalized Density × 100,000 [1]: 38.63 | Spot# 576, 620 Average Normalized Density × 100,000 [1]: 16.66 | Spot# 586, 614 Average Normalized Density × 100,000 [1]: 38.00 | Spot# 592 Average Normalized Density × 100,000 [1]: 31.55 | Spot# 604 Average Normalized Density × 100,000 [1]: 23.66 | Spot# 606 Average Normalized Density × 100,000 [1]: 5.58 | Spot# 627 Average Normalized Density × 100,000 [1]: 54.85 | Spot# 638 Average Normalized Density × 100,000 [1]: 5.92 | Spot# 649 Average Normalized Density × 100,000 [1]: 37.11 | Spot# 651 Average Normalized Density × 100,000 [1]: 57.85 | Spot# 655 Average Normalized Density × 100,000 [1]: 149.20 | Spot# 672 Average Normalized Density × 100,000 [1]: 17.65 | Spot# 676 Average Normalized Density × 100,000 [1]: 42.59 | Spot# 691 Average Normalized Density × 100,000 [1]: 16.29 | Spot# 715 Average Normalized Density × 100,000 [1]: 32.20 | Spot# 724 Average Normalized Density × 100,000 [1]: 2.23 | Spot# 728 Average Normalized Density × 100,000 [1]: 1.13 | Spot# 733 Average Normalized Density × 100,000 [1]: 2.44 | Spot# 740 Average Normalized Density × 100,000 [1]: 7.33 | Spot# 745 Average Normalized Density × 100,000 [1]: 3.21 | Spot# 749 Average Normalized Density × 100,000 [1]: 1.70 | Spot# 766 Average Normalized Density × 100,000 [1]: 6.32 | Spot# 779, 909 Average Normalized Density × 100,000 [1]: 6.88 | Spot# 796 Average Normalized Density × 100,000 [1]: 8.33 | Spot# 814 Average Normalized Density × 100,000 [1]: 1.56 | Spot# 817 Average Normalized Density × 100,000 [1]: 29.59 | Spot# 820, 1081 Average Normalized Density × 100,000 [1]: 2.20 | Spot# 827 Average Normalized Density × 100,000 [1]: 17.80 | Spot# 832 Average Normalized Density × 100,000 [1]: 7.55 | Spot# 860 Average Normalized Density × 100,000 [1]: 5.79 | Spot# 867 Average Normalized Density × 100,000 [1]: 3.00 | Spot# 881 Average Normalized Density × 100,000 [1]: 6.68 | Spot# 897 Average Normalized Density × 100,000 [1]: 31.94 | Spot# 900 Average Normalized Density × 100,000 [1]: 44.00 | Spot# 906 Average Normalized Density × 100,000 [1]: 87.74 | Spot# 966 Average Normalized Density × 100,000 [1]: 59.29 | Spot# 979 Average Normalized Density × 100,000 [1]: 41.38 | Spot# 992 Average Normalized Density × 100,000 [1]: 57.94
